US11633512B2, “Method for disinfecting soils or other agricultural growing media” (Agrozono, S.L., priority 2017, dated 2023)
Read-outs that look alike come from different tables or passages of the source.

How the values were obtained:
[1] = system: Sclerotinia sp, Fusarium oxysporum and Phytophthora citrophthora; test: Disinfection of infected soil in containers: survival of phytopathogenic fungi; type: in vivo; parameters: reduction of pathogenic fungi: concentration or dose not given beside the values
[2] = system: Erwinia amylovora and Clavibacter michiganensis; test: Disinfection of infected soil in containers: survival of phytopathogenic bacteria; type: in vivo
Experimental: In order to achieve the aforementioned objectives, soil without crops was infected with the phytopathogenic species Sclerotinia, Fusarium, Erwinia, Phytophthora and Clavibacter. The assay was performed in Lorca (Murcia). It took place in open air in bins with soil without crops and wherein tomatoes, peppers and melons had been grown previously. After performing the first application of the method of the present invention, tomato plants, Lycopersicum esculentum, were transplanted, the response of the plants to the treatments being evaluated.
The microbiological content of the soil was evaluated at different depths: 20, 40 and 60 cm., before and after the applications.
Containers were installed with a known volume of 1000 l (1×1×1 m) in field. Moreover, a medium proceeding from a greenhouse with melons, peppers and tomatoes having been grown there previously was selected and homogenised. Subsequently, the containers were filled with this medium.
In the laboratory, the following species were cultivated in vitro: • Phytopathogenic bacteria: Erwinia amylovora and Clavibacter michiganensis • Phytopathogenic fungi: Sclerotinia sp, Fusarium oxysporum and Phytophthora citrophthora
Each microorganism was grown in liquid medium until reaching a concentration of 10^8 ufc/ml. For each of the bins, 1 litre of microbial solution was prepared.
Then the pathogenic microorganisms were inoculated in the medium, periodic irrigations were performed until reaching the capacity of the medium, samples were taken at different depths (20 cm, 40 cm and 60 cm) and the phytopathogens were counted in said samples, in order to verify the permanence and presence of phytopathogens in the soil.
A first application of the disinfection method with ozone was performed. To do so, the ozonation equipment was inserted into the irrigation system and the parameters of said equipment were adjusted in order to achieve ozonated water with at least 2 ppm of dissolved ozone. Subsequently, the soil was left to rest for 30 min and the tomato plants, Lycopersicum esculentum, were transplanted. Subsequently, a second application of the disinfection method with ozone was performed in the same conditions indicated previously and, after letting the treated soil rest for 30 min, the microorganism formula (1) was inoculated.
In order to analyse the effect of the treatment on the disinfection of the soil, samples were taken at different depths (20 cm, 40 cm and 60 cm) and on different dates, and the microbial load in each of the samples was analysed.
In this section the data obtained is described. As explained in the assay protocol, soil samples were taken at different depths (20 cm, 40 cm and 60 cm) and quality controls were performed quantifying the number of pathogenic fungi and bacteria present.

[3] = system: tomato plants, Lycopersicum esculentum; test: Phytotoxicity and plant development of tomato plants transplanted into treated soil; type: in vivo
Experimental: Afterwards, as mentioned earlier, once the first disinfection was finished, tomato seedlings were transplanted into the bins in order to evaluate the “residual effect” of the treatment. Subsequently, the study of the plant development of the plants was performed.
After the first application of the disinfection method, on 19 Sep. 2014, 2 tomato plants were transplanted per container. The residual effect of the ozone was evaluated.
Throughout the assay, the parameters evaluated were: • Flow rate and ppm ozone at the outlet. • Microbial evaluation of the soil (t=0; t=7 days and t=30 days). • Relationship of the depth with the possible fungicidal effect. • Having established the tomato plants, it was evaluated if the treatments caused phytotoxicity.
The parameters that will be observed in the crop will be the appearance of necrosis and burning on leaves and fruits. • Plant development of the crop.
After the first application of the treatment with ozone, 2 tomato plants were transplanted into each of the containers. The growth of the plants was evaluated for three months, ending the analysis of this parameter on 2 January due to frost in the area (see FIGS. 5a and 5b).

nematodes (Meloidogyne) = test: Disinfection of nematodes in Padrón pepper crop (greenhouse); type: in vivo, Meloidogyne sp.
Experimental: On a 500 m^2 surface of a greenhouse, with a water consumption of 3000 l/h, the disinfection with ozone was performed at a dose of 6 ppm, revising with the REDOX readings that a reading of 1000 mV is obtained in the farthest drip emitters, starting from a value of 185 mV in the irrigation water without ozone.
When the treatment ends, the inoculation of the microorganism formula (1) is performed (see example 1). Seven days after performing the treatment, samples of earth are taken to see the level of nematode infestation, observing a decrease of 90% of the population.

nematodes = test: Evolution of nematodes in soil after ozone treatment and inoculation of microorganisms; type: in vivo; conditions: 5.5 ppm of ozone for 2 hours; before treatment 480 juveniles/100 cc of earth
microorganisms = conditions: cited from earlier work
coliform bacteria = conditions: cited from earlier work
[4] = cited from earlier work

For `O=[O+][O-]` [ozone], the “reduction of pathogenic fungi” value ([1]; application 1, 24 hours after application, depth 20 cm) was 100%, the “reduction of pathogenic fungi” value ([1]; application 1, 24 hours after application, depth 60 cm) was 100% and the “reduction of pathogenic fungi” value ([1]; application 2, depth 20 cm) was 100%. The “fungi present a month after application” value ([1]; application 2, depth 20 cm, 30 days) was “traces of fungi appearing a month later”, the “reduction of pathogenic fungi” value ([1]; application 2, depth 40 cm, effect prolonged for 30 days) was 100% and the “reduction of pathogenic fungi” value ([1]; application 2, depth 60 cm, effect prolonged for 30 days) was 100%. The “disinfection against the phytopathogenic fungi tested” value ([1]; overall result of the soil assays, ozonated water at least 2 ppm) was 100%, the “mortality of pathogenic mesophilic bacteria” value ([2]; after first application of ozonated water) was “less than 50%” and the “reduction of pathogenic mesophilic bacteria” value ([2]; after second application) was 50%. The “reduction of pathogenic mesophilic bacteria” value ([2]; after second application, listed as ozonated water) was “at least 50%”, the “reduction of populations of pathogenic bacteria compared with control” value ([2]; application 1, all depths tested except 60 cm) was “less than 50%” and the “completeness of reduction of pathogenic bacteria” value ([2]; application 2) was “the reduction was not complete”. For the same molecule, the “reduction of pathogenic mesophilic bacteria” value ([2]; second application, depth 60 cm) was 60%, the “plant development of tomato plants” value ([3]; plants transplanted after first application into infected, treated soil) was “vigorous plant development” and the “phytotoxicity: growth and plant development” value ([3]; three months after the transplant) was “normal growth and plant development”. The “Meloidogyne sp. after the disinfection” value (nematodes (Meloidogyne); ozonated irrigation, crop in full production, before disinfection 88 juveniles/100 cc soil) was 8 juveniles/1 cc soil, the “decrease of the nematode population” value (nematodes (Meloidogyne); ozone 6 ppm, then inoculation of microorganism formula (1), soil samples seven days after treatment) was 90% and the “presence of juveniles after the treatment with ozone” value (nematodes) was 44 /100 cc of earth. For the same molecule, the “application period necessary for disinfection” value (microorganisms) was 5 s, the “time needed in order to eliminate microorganisms” value (microorganisms) was “four” and the “time to kill 99% of 60,000 coliform bacteria/ml” value (coliform bacteria) was 2.8 s. For the same molecule, the “useful life of ozone” value ([4]; water temperature of 15° C.) was 30 min, the “useful life of ozone” value ([4]; water temperature of 25° C.) was 15 min and the “time until degradation of the ozone into oxygen” value ([4]; water without organic matter, pH of 7, water temperature of 15° C.) was “about 30 minutes”.
